≈ marks a conversion by molar mass, not a printed value. Where two headings read alike, the source gives them in different places.
Assays:
Assay in all cases: microbe, parasite or virus in culture
E. coli ATCC 43888 = conditions: for Bacterial MIC: E. coli 43888; for MIC: Escherichia coli
In short: (§1)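 Broth microdilution in cation-adjusted Mueller-Hinton broth, final inoculum 1 × 10⁵ CFU/mL, peptides 0.25 to 128 μg/mL in 0.02% TFA + 0.04% BSA. Duplicates incubated 20 h at 37 °C without agitation. MIC read visually per CLSI with image-analysis support.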

E. cloacae ATCC 13047 = conditions: for Bacterial MIC: E. cloacae 13047; for MIC: Enterobacter cloacae
In short: as §1

A. baumannii ATCC 17978 = conditions: for Bacterial MIC: A. baumannii 17978; for MIC: Acinetobacter baumannii
In short: as §1

Structure (SMILES): C[C@H]1COc2c(N3CCN(C)CC3)c(F)cc3c(=O)c(C(=O)O)cn1c23 [Levofloxacin, reference compound]
- Bacterial MIC (E. coli ATCC 43888; Historical run 15NOV23): <= 0.250 µg/mL
- Bacterial MIC (E. coli ATCC 43888; Historical run 19APRIL23): <= 0.250 µg/mL
- Bacterial MIC (E. coli ATCC 43888; Historical run 22NOV23): <= 0.250 µg/mL
- Bacterial MIC (E. coli ATCC 43888; Week 2 (12/14/2023)): <= 0.250 µg/mL
- MIC (E. coli ATCC 43888; ATCC43888, 20 h): 0.25 µg/mL (≈ 0.692 µM)
- MIC (E. coli ATCC 43888; ATCC43888, read-out: Bacterial MIC): ≤ 0.25 µg/mL
- Bacterial MIC (E. cloacae ATCC 13047; Historical run 15NOV23): <= 0.250 µg/mL
- Bacterial MIC (E. cloacae ATCC 13047; Historical run 19APRIL23): <= 0.250 µg/mL
- Bacterial MIC (E. cloacae ATCC 13047; Historical run 22NOV23): <= 0.250 µg/mL
- Bacterial MIC (E. cloacae ATCC 13047; Week 2 (12/14/2023)): <= 0.250 µg/mL
- MIC (E. cloacae ATCC 13047; ATCC13047, 20 h): 0.25 µg/mL (≈ 0.692 µM)
- MIC (E. cloacae ATCC 13047; ATCC13047, read-out: Bacterial MIC): ≤ 0.25 µg/mL
- Bacterial MIC (A. baumannii ATCC 17978; Historical run 15NOV23): <= 0.250 µg/mL
- Bacterial MIC (A. baumannii ATCC 17978; Historical run 19APRIL23): <= 0.250 µg/mL
- Bacterial MIC (A. baumannii ATCC 17978; Historical run 22NOV23): <= 0.250 µg/mL
- Bacterial MIC (A. baumannii ATCC 17978; Week 2 (12/14/2023)): <= 0.250 µg/mL
- MIC (A. baumannii ATCC 17978; ATCC17978, 20 h): 0.25 µg/mL (≈ 0.692 µM)
- MIC (A. baumannii ATCC 17978; ATCC17978, read-out: Bacterial MIC): ≤ 0.25 µg/mL

Source: publication PMC12635268, “Novel antimicrobial peptides and peptide-microbiome crosstalk in Appalachian salamander skin” (NPJ Biofilms and Microbiomes, 2025)
